Test results from PMC10254843, “Discovery of New 2-Phenylamino-3-acyl-1,4-naphthoquinones as Inhibitors of Cancer Cells Proliferation: Searching for Intra-Cellular Targets Playing a Role in Cancer Cells Survival” (Molecules, 2023).

Legend:
[1] = tested on: DU-145 (prostate cancer cells); assay: MTT cell survival assay, DU-145 prostate cancer cells; type: cell-based; details: Homo sapiens, MTT test, cells incubated at 37 °C for 48 h (Table 1 footnote), mean ± SEM, n = 3
Method: (§1) Human cancer cell lines from bladder (T24), prostate (DU–145), breast (MCF–7) and non-tumor HEK-293 cells were obtained from the American Type Culture Collection (ATCC, Manassas, VA, USA). The cultures were maintained at a density of 1–2 × 10^5 cells/mL and the medium was changed at 48- and 72-h intervals. They were cultured in high-glucose Dulbecco’s modified Eagle medium (Gibco, Grand Island, NY, USA) supplemented with 10% fetal calf serum, penicillin (100 U/mL) and streptomycin (100 μg/mL). All cultures were kept at 37 °C in 95% air/5% CO2 at 100% humidity. Phosphate-buffered saline (PBS) was purchased from Gibco. Cells were incubated at the indicated times at 37 °C with or without compounds 1–14 at various concentrations.
(§2) The cytotoxicity of the compounds 1–14 was assessed by following the reduction of MTT (3-(4,5-Dimethylthiazol-2-yl)-2,5-diphenyltetrazolium bromide) to formazan blue. […] Doxorubicin was used as a standard chemotherapeutic agent (positive control). Cells were washed twice with warm PBS and further incubated with MTT (0.5 mg/mL) for 2 h at 37 °C. Blue formazan crystals were solubilized by adding 100 µL DMSO/well, and the optical density of colored solutions was subsequently read at 550 nm in a microplate reader Tecan infinite M200 Pro (Männedorf, Switzerland). The compounds 1–14 were dissolved in DMSO (stock solution at 100 mM) and further diluted to be evaluated at the following concentrations: 0 μM, 1 μM, 10 μM, 20 μM, 40 μM, 60 μM, 80 μM and 100 μM. Results are expressed as % of MTT reduction compared to untreated control conditions. The IC50 values were calculated using the GraphPad Prism 8.0.2 software (San Diego, CA, USA).

[2] = tested on: MCF-7 (mammary cancer cells); assay: MTT cell survival assay, MCF-7 mammary cancer cells; type: cell-based; details: Homo sapiens, MCF7; MTT test; cells incubated at 37 °C for 48 h (Table 1 footnote); mean ± SEM, n = 3
Method: as §1, §2

[3] = tested on: T24 (Urinary bladder cancer cells); assay: MTT cell survival assay, T24 urinary bladder cancer cells; type: cell-based; details: Homo sapiens; MTT test; cells incubated at 37 °C for 48 h (Table 1 footnote); mean ± SEM, n = 3
Method: as §1, §2

[4] = tested on: non-tumorigenic HEK-293 (embryonic kidney cells); assay: MTT cell survival assay, non-tumorigenic HEK-293 cells; type: cell-based; details: Homo sapiens, HEK293; MTT test; cells incubated at 37 °C for 48 h (Table 1 footnote); mean ± SEM, n = 3
Method: as §1, §2

[5] = tested on: HEK-293 cells/tumour cells; assay: Mean selective index, HEK-293 vs tumour cells; type: cell-based, human; details: MSI = IC50 values HEK-293 cells/IC50 values tumour cells
Method: (§3) The cytotoxicity of the compounds 1–14 was assessed by following the reduction of MTT (3-(4,5-Dimethylthiazol-2-yl)-2,5-diphenyltetrazolium bromide) to formazan blue. Cells were seeded into 96-well plates at a density of 10,000 cells/well for 24 h and then they were further incubated for 24 h with or without the quinones. Doxorubicin was used as a standard chemotherapeutic agent (positive control). Cells were washed twice with warm PBS and further incubated with MTT (0.5 mg/mL) for 2 h at 37 °C. Blue formazan crystals were solubilized by adding 100 µL DMSO/well, and the optical density of colored solutions was subsequently read at 550 nm in a microplate reader Tecan infinite M200 Pro (Männedorf, Switzerland). The compounds 1–14 were dissolved in DMSO (stock solution at 100 mM) and further diluted to be evaluated at the following concentrations: 0 μM, 1 μM, 10 μM, 20 μM, 40 μM, 60 μM, 80 μM and 100 μM. Results are expressed as % of MTT reduction compared to untreated control conditions. The IC50 values were calculated using the GraphPad Prism 8.0.2 software (San Diego, CA, USA).

[6] = Half-wave potentials by cyclic voltammetry; type: physicochemical; details: acetonitrile, platinum electrode, room temperature, negative of the potential
Method: Calculation of lipophilicity (ClogP) and molar refractivity (CMR) was assessed by using the ChemBioDraw Ultra 11.0 software and the obtained values are shown in Table 3. Redox potentials of 2-phenylamino-3-acyl-1,4-naphtoquinones 1–14 were measured by cyclic voltammetry at room temperature in acetonitrile as solvent using a platinum electrode and 0.1M tetraethylammonium tetrafluoroborate as the supporting electrolyte.

[7] = tested on: DU-145, MCF-7 and T24 cancer cells; assay: Antiproliferative activity over DU-145, MCF-7 and T24 cancer cells; type: cell-based, human; details: summary of Table 1 (DU-145, MCF-7, T24)
Method: as §1, §3

CCCCCC(=O)C1=C(Nc2ccccc2)C(=O)c2ccccc2C1=O [Compound 1, 2-(Phenylamino)-3-hexanoylnaphthalene-1,4-dione]
IC50 [1]: 60.89 ± 0.34 µM | IC50 [2]: 62.68 ± 0.53 µM | IC50 [3]: 86.7 ± 2.52 µM | IC50 [4]: 77.3 ± 3.66 µM | MSI (mean selective index) [5]: 1.1 | −E^I½ (mV) [6]: 475 mV | IC50 ([7]; Homo sapiens, read-out: IC50 range over the cancer cell lines): 60.9 to 86.7 µM

CCCCCCCCCC(=O)C1=C(Nc2ccccc2)C(=O)c2ccccc2C1=O [Compound 2, 2-(Phenylamino)-3-decanoylnaphthalene-1,4-dione]
IC50 [1]: > 100 µM | IC50 [2]: > 100 µM | IC50 [3]: > 100 µM | IC50 [4]: 79.8 ± 9.74 µM | MSI (mean selective index) [5]: < 0.8 | −E^I½ (mV) [6]: 480 mV | IC50 range over the cancer cell lines [7]: almost devoid of activity

CCCCCCCCCCCC(=O)C1=C(Nc2ccccc2)C(=O)c2ccccc2C1=O [Compound 3, 2-(Phenylamino)-3-dodecanoylnaphthalene-1,4-dione]
IC50 [1]: > 100 µM | IC50 [2]: > 100 µM | IC50 [3]: > 100 µM | IC50 [4]: > 100 µM | MSI (mean selective index) [5]: 1.0 | −E^I½ (mV) [6]: 484 mV | IC50 range over the cancer cell lines [7]: almost devoid of activity

COc1cccc(C(=O)C2=C(Nc3ccccc3)C(=O)c3ccccc3C2=O)c1 [Compound 5, 2-(Phenylamino)-3-(3-methoxybenzoyl)naphthalene-1,4-dione]
IC50 [1]: 10.2 ± 0.95 µM | IC50 [2]: 6.63 ± 0.13 µM | IC50 [3]: 12 ± 0.37 µM | IC50 [4]: 30.8 ± 4.07 µM | MSI (mean selective index) [5]: 3.2 | −E^I½ (mV) [6]: 500 mV

COc1ccc(C(=O)C2=C(Nc3ccccc3)C(=O)c3ccccc3C2=O)cc1 [Compound 6, 2-(Phenylamino)-3-(4-methoxybenzoyl)naphthalene-1,4-dione]
IC50 [1]: 19.5 ± 0.95 µM | IC50 [2]: 11.8 ± 0.54 µM | IC50 [3]: 13.3 ± 0.44 µM | IC50 [4]: 38.9 ± 3.3 µM | MSI (mean selective index) [5]: 2.6 | −E^I½ (mV) [6]: 800 mV

COc1ccc(C(=O)C2=C(Nc3ccccc3)C(=O)c3ccccc3C2=O)cc1OC [Compound 7, 2-(Phenylamino)-3-(3,4-dimethoxybenzoyl)naphthalene-1,4-dione]
IC50 [1]: 11.9 ± 0.22 µM | IC50 [2]: 10.6 ± 0.27 µM | IC50 [3]: 15.2 ± 0.88 µM | IC50 [4]: 79.9 ± 10.4 µM | MSI (mean selective index) [5]: 6.4 | −E^I½ (mV) [6]: 604 mV

COc1cc(C(=O)C2=C(Nc3ccccc3)C(=O)c3ccccc3C2=O)cc(OC)c1OC [Compound 8, 2-(Phenylamino)-3-(3,4,5-trimethoxybenzoyl)naphthalene-1,4-dione]
IC50 [1]: 11.7 ± 0.29 µM | IC50 [2]: 4.88 ± 0.52 µM | IC50 [3]: 7.14 ± 0.2 µM | IC50 [4]: 37.4 ± 1.7 µM | MSI (mean selective index) [5]: 4.7 | −E^I½ (mV) [6]: 690 mV
